In US20220411388A1, “SUBSTITUTED IMIDAZOLE CARBOXAMIDES AND THEIR USE IN THE TREATMENT OF MEDICAL DISORDERS” (Bial - R&D Investments, S.A., priority 2019, published 2022):
Converted amounts (≈) assume the structure as drawn. Where two headings read alike, the source gives them in different places.

Assays:
acid ceramidase (hACR) = biological target: T1, acid ceramidase (hACR) (Homo sapiens, UniProt Q13510); assay: Acid ceramidase inhibition, biochemical fluorescent assay with cell lysates overexpressing acid ceramidase (substrate Rbm14-12); details: cell lysate, 1 hr preincubation at RT, pH 4.5, Rbm14-12 6.3 μM
T1 construct: expressed in transfected cells
T1 sequence (Q13510 22-395): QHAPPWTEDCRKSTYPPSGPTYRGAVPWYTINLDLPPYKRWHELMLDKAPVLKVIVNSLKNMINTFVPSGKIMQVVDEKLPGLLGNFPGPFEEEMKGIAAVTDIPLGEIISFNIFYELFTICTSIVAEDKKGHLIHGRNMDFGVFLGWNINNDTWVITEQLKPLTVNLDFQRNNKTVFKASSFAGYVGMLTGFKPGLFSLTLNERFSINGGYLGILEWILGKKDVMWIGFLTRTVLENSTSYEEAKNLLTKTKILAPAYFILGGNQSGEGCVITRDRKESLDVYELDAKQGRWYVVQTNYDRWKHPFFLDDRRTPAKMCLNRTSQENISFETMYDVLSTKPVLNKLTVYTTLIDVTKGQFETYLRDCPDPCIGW
How it was run: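 Enzyme source was lysate from cells overexpressing acid ceramidase, 10 µg protein per reaction. Compounds were preincubated 1 h at RT in 25 mM NaAc, 100 mM NaCl, pH 4.5.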

[1] = Compound solubility in water; type: physicochemical

| SMILES | IC50 (acid ceramidase (hACR); read-out: IC50 hACR) [nM] | solubility [1] [µg/mL] | IC50 (acid ceramidase (hACR); IC50 hACR) [nM] |
| --- | --- | --- | --- |
| CCC(C)CNC(=O)n1cnc(-c2cccnc2)c1 (stereo not shown) [Example 60, N-(2-Methylbutyl)-4-(pyridin-3-yl)-1H-imidazole-1-carboxamide] | 200 to 1000 | 25.6 (≈ 99.1 µM) | – |
| COc1nc(C)cn1C(=O)NCCCC(F)(F)F [Example 139, 2-Methoxy-4-methyl-N-(4,4,4-trifluorobutyl)-1H-imidazole-1-carboxamide] | 200 to 1000 | 32 (≈ 121 µM) | – |
| O=C(NCCCc1ccccc1)n1cnc(-c2ccccc2)c1 [Example 9] | < 200 | 1.3 (≈ 4.26 µM) | – |
| Cc1cn(C(=O)NC2CCC(F)(F)CC2)c(Oc2ccc(N3CCOCC3)cc2)n1 [Example 165, N-(4,4-Difluorocyclohexyl)-4-methyl-2-(4-morpholinophenoxy)-1H-imidazole-1-carboxamide] | < 200 | 21 (≈ 49.9 µM) | – |
| COc1nc(C(C)(C)C)cn1C(=O)NCCCC(F)(F)F [Example 91, 4-(tert-Butyl)-2-methoxy-N-(4,4,4-trifluorobutyl)-1H-imidazole-1-carboxamide] | 200 to 1000 | 22 (≈ 71.6 µM) | – |
| COc1nc(-c2cccnn2)cn1C(=O)NCCC(C)C [Example 83, N-iso-Pentyl-2-methoxy-4-(pyridazin-3-yl)-1H-imidazole-1-carboxamide] | 200 to 1000 | 33 (≈ 114 µM) | – |
| O=C(NCCOc1ccccc1)n1cnc(-c2ccccc2)c1 [Example 18, N-(2-Phenoxyethyl)-4-phenyl-1H-imidazole-1-carboxamide] | < 200 | 0.06 (≈ 0.195 µM) | – |
| CN1CCN(CCOc2nc(-c3ccccc3)cn2C(=O)NCC#Cc2ccccc2)CC1 [Example 202] | < 200 | 7 (≈ 15.8 µM) | – |
| COc1nc(C2(C)CCOCC2)cn1C(=O)NCCC1CC1 [Example 104, N-(2-Cyclopropylethyl)-2-methoxy-4-(4-methyltetrahydro-2H-pyran-4-yl)-1H-imidazole-1-carboxamide] | 200 to 1000 | 28 (≈ 91.1 µM) | – |
| CSc1nccn1C(=O)NCCC(C)C [Example 132, N-iso-Pentyl-2-(methylthio)-1H-imidazole-1-carboxamide] | < 200 | 10 (≈ 44 µM) | – |
| COc1nc(-c2ccccc2)cn1C(=O)NCCc1ccccc1 [Example 8, 2-Methoxy-N-phenethyl-4-phenyl-1H-imidazole-1-carboxamide] | 200 to 1000 | 0.1 (≈ 0.311 µM) | – |
| COc1nc(C(C)(C)C)cn1C(=O)NC1CCCC(F)(F)C1 (stereo not shown) [Example 99, 4-(tert-Butyl)-N-(3,3-difluorocyclohexyl)-2-methoxy-1H-imidazole-1-carboxamide] | > 1000 | 14 (≈ 44.4 µM) | – |
| COc1nc(C(C)(C)C)cn1C(=O)NC1CCC(F)(F)CC1 [Example 112, 4-(tert-Butyl)-N-(4,4-difluorocyclohexyl)-2-methoxy-1H-imidazole-1-carboxamide] | 200 to 1000 | 12 (≈ 38.1 µM) | – |
| CC(C)CNC(=O)n1cc(C(C)(C)C)nc1OC(C)C [Example 107, 4-(tert-Butyl)-N-iso-butyl-2-iso-propoxy-1H-imidazole-1-carboxamide] | 200 to 1000 | 7 (≈ 24.9 µM) | – |
| CC(C)CCNC(=O)n1cnc(C2CCCN(C)C2)c1 (stereo not shown) [Example 47, N-iso-Pentyl-4-(1-methylpiperidin-3-yl)-1H-imidazole-1-carboxamide] | 200 to 1000 | 32.2 (≈ 116 µM) | – |
| Cc1cn(C(=O)NCCCC2(C(F)(F)F)CC2)c(OCCN2CCN(C)CC2)n1 [Example 200, 4-Methyl-2-(2-(4-methylpiperazin-1-yl)ethoxy)-N-(3-(1-(trifluoromethyl)cyclopropyl)propyl)-1H-imidazole-1-carboxamide] | < 200 | 49 (≈ 117 µM) | – |
| Cc1cn(C(=O)NCCCC(F)(F)F)c(OCCN2CCN(C)CC2)n1 [Example 198, 4-Methyl-2-(2-(4-methylpiperazin-1-yl)ethoxy)-N-(4,4,4-trifluorobutyl)-1H-imidazole-1-carboxamide] | 200 to 1000 | 38 (≈ 101 µM) | – |
| COc1nc(C(C)(C)C)cn1C(=O)NCC#CC(C)C [Example 98, 4-(tert-Butyl)-2-methoxy-N-(4-methylpent-2-yn-1-yl)-1H-imidazole-1-carboxamide] | < 200 | 5 (≈ 18 µM) | – |
| COc1nc(C)cn1C(=O)NCCC(C)C [Example 119, N-iso-Pentyl-2-methoxy-4-methyl-1H-imidazole-1-carboxamide] | 200 to 1000 | 14 (≈ 62.1 µM) | – |
| CCOc1nc(-c2ccc(OC)nc2)cn1C(=O)NCCC1CC1 [Example 68, N-(2-Cyclopropylethyl)-2-ethoxy-4-(6-methoxypyridin-3-yl)-1H-imidazole-1-carboxamide] | > 1000 | 2 (≈ 6.05 µM) | – |
| CCC(C)(C)c1cn(C(=O)NCCC(C)C)c(OC)n1 [Example 100, N-iso-Pentyl-2-methoxy-4-(tert-pentyl)-1H-imidazole-1-carboxamide] | – | 14 (≈ 49.8 µM) | 200 to 1000 |

| SMILES | IC50 (acid ceramidase (hACR); read-out: IC50 hACR) [nM] | solubility [1] [µg/mL] | IC50 (acid ceramidase (hACR); IC50 hACR) [nM] |
| --- | --- | --- | --- |
| COc1nccn1C(=O)NC1CCCCC1 [Example 120, N-Cyclohexyl-2-methoxy-1H-imidazole-1-carboxamide] | > 1000 | 14 (≈ 62.7 µM) | – |
| COc1nc(C)cn1C(=O)NCCC1CCCC1(F)F (stereo not shown) [Example 167, N-(2-(2,2-Difluorocyclopentyl)ethyl)-2-methoxy-4-methyl-1H-imidazole-1-carboxamide] | < 200 | 32 (≈ 111 µM) | – |
| COc1ccc(-c2cn(C(=O)NC3CCCCC3)cn2)cn1 [Example 62, N-Cyclohexyl-4-(6-methoxypyridin-3-yl)-1H-imidazole-1-carboxamide] | > 1000 | 0.6 (≈ 2 µM) | – |
| COc1nc(C2CCOC2)cn1C(=O)NCCC(C)C (stereo not shown) [Example 85, N-iso-Pentyl-2-methoxy-4-(tetrahydrofuran-3-yl)-1H-imidazole-1-carboxamide] | 200 to 1000 | 28 (≈ 99.5 µM) | – |
| COc1nc(-c2ccccc2)cn1C(=O)NCCCc1ccccc1 [Example 12, 2-Methoxy-4-phenyl-N-(3-phenylpropyl)-1H-imidazole-1-carboxamide] | 200 to 1000 | 1 (≈ 2.98 µM) | – |
| COc1nc(C(C)(C)C)cn1C(=O)NCCCCn1ccc(C(C)(C)C)n1 [Example 134, 4-(tert-Butyl)-N-(4-(3-(tert-butyl)-1H-pyrazol-1-yl)butyl)-2-methoxy-1H-imidazole-1-carboxamide] | < 200 | 18 (≈ 47.9 µM) | – |
| O=C(NCCC1(C(F)(F)F)CC1)n1cnc(-c2ccccc2)c1 [Example 25, 4-Phenyl-N-(2-(1-(trifluoromethyl)cyclopropyl)ethyl)-1H-imidazole-1-carboxamide] | < 200 | 0.8 (≈ 2.47 µM) | – |
| Cc1cn(C(=O)NC2CCC(F)(F)CC2)c(Oc2cccc(C#N)c2)n1 [Example 164, 2-(3-Cyanophenoxy)-N-(4,4-difluorocyclohexyl)-4-methyl-1H-imidazole-1-carboxamide] | < 200 | 8 (≈ 22.2 µM) | – |
| O=C(NCCCC1CC1)n1cnc(-c2cccnc2)c1 [Example 32, N-(3-Cyclopropylpropyl)-4-(pyridin-3-yl)-1H-imidazole-1-carboxamide] | 200 to 1000 | 27.6 (≈ 102 µM) | – |
| COc1ccc(-c2cn(C(=O)NCCC3CC3)cn2)cn1 [Example 70, N-(2-Cyclopropylethyl)-4-(6-methoxypyridin-3-yl)-1H-imidazole-1-carboxamide] | 200 to 1000 | 1.3 (≈ 4.54 µM) | – |
| CC(C)CCCCNC(=O)n1cnc(-c2cccnc2)c1 [Example 39, N-(5-Methylhexyl)-4-(pyridin-3-yl)-1H-imidazole-1-carboxamide] | < 200 | 2.7 (≈ 9.43 µM) | – |
| Cc1ccc(-c2cn(C(=O)NCCc3ccccc3)cn2)cn1 [Example 29, 4-(6-Methylpyridin-3-yl)-N-phenethyl-1H-imidazole-1-carboxamide] | < 200 | 3 (≈ 9.79 µM) | – |
| O=C(NCCc1ccccc1)n1cnc(-c2ccccc2)c1 [Example 2, N-Phenethyl-4-phenyl-1H-imidazole-1-carboxamide] | < 200 | 0.2 (≈ 0.686 µM) | – |
| O=C(NC1CCCCC1)n1cnc(-c2cccnc2)c1 [Example 61, N-Cyclohexyl-4-(pyridin-3-yl)-1H-imidazole-1-carboxamide] | > 1000 | 23 (≈ 85.1 µM) | – |
| COc1nc(Cl)cn1C(=O)NC1CC1 [Example 189, 4-Chloro-N-cyclopropyl-2-methoxy-1H-imidazole-1-carboxamide] | > 1000 | 26 (≈ 121 µM) | – |
| COc1nc(C)cn1C(=O)NCCCOC(F)(F)F [Example 151, 2-Methoxy-4-methyl-N-(3-(trifluoromethoxy)-propyl)-1H-imidazole-1-carboxamide] | 200 to 1000 | 30 (≈ 107 µM) | – |
| CC(C)c1ccc(-c2cn(C(=O)NCCc3ccccc3)cn2)cn1 [Example 43, 4-(6-iso-Propylpyridin-3-yl)-N-phenethyl-1H-imidazole-1-carboxamide] | < 200 | 0.8 (≈ 2.39 µM) | – |
| O=C(NCc1ccccc1)n1cnc(-c2cccnc2)c1 [Example 42] | 200 to 1000 | 13.6 (≈ 48.9 µM) | – |
| COc1nccn1C(=O)NCCCCc1ccccc1 [Example 136, 2-Methoxy-N-(4-phenylbutyl)-1H-imidazole-1-carboxamide] | < 200 | 22 (≈ 80.5 µM) | – |
| O=C(NCCC1CC1)n1cnc(-c2ccns2)c1 [Example 72, N-(2-Cyclopropylethyl)-4-(iso-thiazol-5-yl)-1H-imidazole-1-carboxamide] | 200 to 1000 | 22 (≈ 83.9 µM) | – |
